For two compounds, viability and Activity results are on record in ChEMBL document CHEMBL3576837, “Targeted natural products discovery from marine cyanobacteria using combined phylogenetic and mass spectrometric evaluation” (2015).

Common to all, as to assay type: functional
Assay [1] concerns HT-29. Nature of the assay: Cytotoxicity against human HT-29 cells assessed as cell viability at 0.32 nM incubated for 48 hrs by MTT assay. The note with it: HT-29, 48 h, read-out: Activity.
The test system of assay [2] is HT-29. Briefly: Cytotoxicity against human HT-29 cells assessed as cell viability at 0.32 nM incubated for 48 hrs in presence of 4 nM largazole by MTT assay.
Assay [3] has as its system HT-29. Nature of the assay: Cytotoxicity against human HT-29 cells assessed as cell viability at 4 nM incubated for 48 hrs by MTT assay. The note with it: HT-29, 48 h, read-out: Activity.
For assay [4], the system named is HT-29. Nature of the assay: Cytotoxicity against human HT-29 cells assessed as cell viability at 4 nM incubated for 48 hrs in presence of 0.32 nM dolastatin 10 by MTT assay.

SMILES strings stand for the structures.

On to `CC[C@H](C)[C@@H]([C@@H](CC(=O)N1CCC[C@H]1[C@H](OC)[C@@H](C)C(=O)N[C@@H](Cc1ccccc1)c1nccs1)OC)N(C)C(=O)[C@@H](NC(=O)[C@H](C(C)C)N(C)C)C(C)C` [DOLASTATIN-10], for which the viability at 0.00032 µM in the assay on HT-29 [1] stood at 80%. The Activity with HT-29 [2] amounted to 55%.

Take `CCCCCCCC(=O)SCC/C=C/[C@@H]1CC(=O)NCc2nc(cs2)C2=N[C@@](C)(CS2)C(=O)N[C@@H](C(C)C)C(=O)O1` [LARGAZOLE]: the viability at 0.004 µM in the assay with HT-29 [3] is 80%. Also, the Activity with HT-29 [4] is on record as 55%.
